Where two headings read alike, the source gives them in different places.
What was measured:
FAAH = target: T1, FAAH (Homo sapiens, UniProt O00519); test: FAAH inhibition, human brain membrane homogenate assay; format: biochemical
T1 construct: Reactions were initiated by adding 12.5 μg of brain microsome; tissue ABS, Inc; host or cells: human brain cerebral cortex, membrane/microsome fraction pooled from 3 donors
T1 sequence (O00519 1-579): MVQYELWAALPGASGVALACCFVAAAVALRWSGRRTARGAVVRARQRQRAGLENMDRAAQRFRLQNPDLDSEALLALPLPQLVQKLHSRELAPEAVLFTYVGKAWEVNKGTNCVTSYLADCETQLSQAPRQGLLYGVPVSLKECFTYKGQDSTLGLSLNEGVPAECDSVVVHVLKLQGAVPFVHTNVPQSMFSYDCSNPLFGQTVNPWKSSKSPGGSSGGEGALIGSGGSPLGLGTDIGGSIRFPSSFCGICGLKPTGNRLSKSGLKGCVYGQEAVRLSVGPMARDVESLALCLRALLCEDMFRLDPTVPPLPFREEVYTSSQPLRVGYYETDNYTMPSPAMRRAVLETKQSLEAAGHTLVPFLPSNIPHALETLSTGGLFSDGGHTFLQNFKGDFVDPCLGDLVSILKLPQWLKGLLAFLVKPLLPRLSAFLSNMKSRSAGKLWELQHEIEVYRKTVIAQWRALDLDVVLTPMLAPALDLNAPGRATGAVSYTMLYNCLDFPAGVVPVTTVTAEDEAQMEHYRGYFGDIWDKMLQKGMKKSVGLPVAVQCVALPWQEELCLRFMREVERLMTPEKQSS

human FAAH-1 = target: T2, human FAAH-1 (Homo sapiens, UniProt O00519); test: Whole cell anandamide hydrolysis assay (HeLa clone 5c5 transfected with human FAAH-1); format: cell-based
T2 sequence (O00519 1-579): T1 sequence (O00519 1-579)
How it was run: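 Stable HeLa clone 5c5 expressing human FAAH-1, pre-incubated with compound 10 min at 37° C in DMEM/F12 with 15 mM HEPES pH 7.4 and 0.1% fatty-acid-free BSA. [3H]-anandamide (5 μM stock) added for 15 min; [3H]-ethanolamine separated on charcoal and counted. IC50 from curves constrained to 100% and 0%.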

[1] = human brain homogenate, average activity, read-out: Human brain Extract FAAH IC50
[2] = HeLa clone 5c5 expressing human FAAH-1, read-out: human FAAH whole cell IC50

Row | Structure (SMILES) | IC50 (FAAH; [1]) [nM] | IC50 (human FAAH-1; [2]) [nM] | IC50 (FAAH) [nM] | IC50 (human FAAH-1) [nM]
1 | COc1ccc(Cn2c(C)c(C(=O)C(=O)Nc3ccnc(OC)c3)c3cc(OC)cnc32)nc1 [Compound 40, 2-(5-methoxy-1-((5-methoxypyridin-2-yl)methyl)-2-methyl-1H-pyrrolo[2,3-b]pyridin-3-yl)-N-(2-methoxypyridin-4-yl)-2-oxoacetamide] | < 100 | < 100 | – | –
2 | COc1cc(NC(=O)C(=O)c2c(C)n(Cc3ccc(Cl)cc3)c3cc(OC)c(OC)cc23)ccn1 [Compound 44, 2-(1-(4-chlorobenzyl)-5,6-dimethoxy-2-methyl-1H-indol-3-yl)-N-(2-methoxypyridin-4-yl)-2-oxoacetamide] | < 100 | < 100 | – | –
3 | COc1cc(NC(=O)C(=O)c2c(C)n(Cc3ccc(Cl)cc3)c3cccc(OC)c23)ccn1 [Compound 45, 2-(1-(4-chlorobenzyl)-4-methoxy-2-methyl-1H-indol-3-yl)-N-(2-methoxypyridin-4-yl)-2-oxoacetamide] | < 100 | < 100 | – | –
4 | COc1cc(NC(=O)C(=O)c2c(C)n(Cc3ccc(Cl)cn3)c3cc(F)c(OC)cc23)ccn1 [Compound 64, 2-(1-((5-chloropyridin-2-yl)methyl)-6-fluoro-5-methoxy-2-methyl-1H-indol-3-yl)-N-(2-methoxypyridin-4-yl)-2-oxoacetamide] | < 100 | < 100 | – | –
5 | COc1cc(NC(=O)C(=O)c2c(C)n(Cc3ccc(Cl)cc3)c3cc(C)c(OC)cc23)ccn1 [Compound 74, 2-(1-(4-chlorobenzyl)-5-methoxy-2,6-dimethyl-1H-indol-3-yl)-N-(2-methoxypyridin-4-yl)-2-oxoacetamide] | < 100 | < 100 | – | –
6 | COc1ccc2c(c1)c(C(=O)C(=O)Nc1ccnc(OC)c1)c(C)n2Cc1ccc(S(C)(=O)=O)cc1 [Compound 39, 2-(5-methoxy-2-methyl-1-(4-(methylsulfonyl)benzyl)-1H-indol-3-yl)-N-(2-methoxypyridin-4-yl)-2-oxoacetamide] | 1000 to 10000 | 1000 to 10000 | – | –
7 | COc1cc(NC(=O)C(=O)c2c(C)n(Cc3ccc(Cl)cn3)c3ccc(Cl)cc23)ccn1 [Compound 63, 2-(5-chloro-1-((5-chloropyridin-2-yl)methyl)-2-methyl-1H-indol-3-yl)-N-(2-methoxypyridin-4-yl)-2-oxoacetamide] | < 100 | < 100 | – | –
8 | COc1cc(NC(=O)C(=O)c2c(C)n(Cc3ncc(Cl)cc3F)c3cc(F)c(OC)cc23)ccn1 [Compound 99, 2-(1-((5-chloro-3-fluoropyridin-2-yl)methyl)-6-fluoro-5-methoxy-2-methyl-1H-indol-3-yl)-N-(2-methoxypyridin-4-yl)-2-oxoacetamide] | < 100 | < 100 | – | –
9 | COc1ccc(Cn2c(C)c(C(=O)C(=O)Nc3ccnc(OC)c3)c3cc(OC)c(Cl)cc32)nc1 [Compound 98, 2-(6-chloro-5-methoxy-1-((5-methoxypyridin-2-yl)methyl)-2-methyl-1H-indol-3-yl)-N-(2-methoxypyridin-4-yl)-2-oxoacetamide] | < 100 | < 100 | – | –
10 | COc1cnc2c(c1)c(C(=O)C(=O)Nc1ccnc(OC)c1)c(C)n2Cc1ncc(Cl)cc1F [Compound 34, 2-(1-((5-chloro-3-fluoropyridin-2-yl)methyl)-5-methoxy-2-methyl-1H-pyrrolo[2,3-b]pyridin-3-yl)-N-(2-methoxypyridin-4-yl)-2-oxoacetamide] | < 100 | < 100 | – | –
11 | COc1cc(NC(=O)C(=O)c2c(C)n(Cc3ccc(Cl)cc3)c3ccc(OC)c(Cl)c23)ccn1 [Compound 58, 2-(4-chloro-1-(4-chlorobenzyl)-5-methoxy-2-methyl-1H-indol-3-yl)-N-(2-methoxypyridin-4-yl)-2-oxoacetamide] | < 100 | < 100 | – | –
12 | COc1cc(NC(=O)C(=O)c2c(C)n(Cc3ncc(F)cc3F)c3ccc(C)cc23)ccn1 [Compound 88, 2-(1-((3,5-difluoropyridin-2-yl)methyl)-2,5-dimethyl-1H-indol-3-yl)-N-(2-methoxypyridin-4-yl)-2-oxoacetamide] | – | – | < 100 | < 100
13 | COc1cc(NC(=O)C(=O)c2c(C)n(Cc3ccc(Cl)cc3)c3ccc(N(C)C(=O)OC(C)(C)C)cc23)ccn1 [Compound 7, Tert-butyl(1-(4-chlorobenzyl)-3-(2-((2-methoxypyridin-4-yl)amino)-2-oxoacetyl)-2-methyl-1H-indol-5-yl)(methyl)carbamate] | 100 to 1000 | 100 to 1000 | – | –
14 | CCN(CC)c1ccc2c(c1)c(C(=O)C(=O)Nc1ccnc(OC)c1)c(C)n2Cc1ccc(Cl)cc1 [Compound 24, 2-(1-(4-chlorobenzyl)-5-(diethylamino)-2-methyl-1H-indol-3-yl)-N-(2-methoxypyridin-4-yl)-2-oxoacetamide] | 1000 to 10000 | 100 to 1000 | – | –
15 | COc1cc(NC(=O)C(=O)c2c(C)n(Cc3ccc(Cl)cn3)c3ccc(N(C)C)cc23)ccn1 [Compound 66, 2-(1-((5-chloropyridin-2-yl)methyl)-5-(dimethylamino)-2-methyl-1H-indol-3-yl)-N-(2-methoxypyridin-4-yl)-2-oxoacetamide] | < 100 | < 100 | – | –
16 | COc1cc(NC(=O)C(=O)c2c(C)n(Cc3ccc(Cl)cc3)c3ccc(COC(C)=O)cc23)ccn1 [Compound 10, (1-(4-chlorobenzyl)-3-(2-(2-methoxypyridin-4-ylamino)-2-oxoacetyl)-2-methyl-1H-indol-5-yl)methyl acetate] | < 100 | < 100 | – | –
17 | COc1cc(NC(=O)C(=O)c2c(C)n(Cc3ccc(Cl)cc3)c3c(OC)cccc23)ccn1 [Compound 51, 2-(1-(4-chlorobenzyl)-7-methoxy-2-methyl-1H-indol-3-yl)-N-(2-methoxypyridin-4-yl)-2-oxoacetamide] | 100 to 1000 | 100 to 1000 | – | –
18 | Cc1c(C(=O)C(=O)Nc2cccc(Cl)c2)c2cc(O)ccc2n1Cc1ccc(Cl)cc1 [Compound 71, 2-(1-(4-chlorobenzyl)-5-hydroxy-2-methyl-1H-indol-3-yl)-N-(3-chlorophenyl)-2-oxoacetamide] | < 100 | < 100 | – | –
19 | COc1ccc2c(c1)c(C(=O)C(=O)Nc1ccnc(OC)c1)c(C)n2Cc1cnc(Cl)cn1 [Compound 12, 2-(1-((5-chloropyrazin-2-yl)methyl)-5-methoxy-2-methyl-1H-indol-3-yl)-N-(2-methoxypyridin-4-yl)-2-oxoacetamide] | < 100 | < 100 | – | –
20 | COc1cc(NC(=O)C(=O)c2c(C)n(Cc3ccc(Cl)cc3)c3ccc([N+](=O)[O-])cc23)ccn1 [Compound 19, 2-(1-(4-chlorobenzyl)-2-methyl-5-nitro-1H-indol-3-yl)-N-(2-methoxypyridin-4-yl)-2-oxoacetamide] | < 100 | < 100 | – | –

Reference: patent US20150175599A1, “FAAH Inhibitors” (Ironwood Pharmaceuticals, Inc., priority 2010, published 2015)
